“And” between values parts separate entries of the source, which are not always exact repeats. Equal values may be shown once. Read-outs that look alike come from different tables or passages of the source.
Experiments:
alpha-glucosidase [1] = target: T1, alpha-glucosidase (Saccharomyces cerevisiae, UniProt P53341); assay: Inhibition of alpha-glucosidase with pNPG as substrate; type: biochemical; conditions: for Mode of inhibition of alpha-glucosidase: Lineweaver-Burk plots
Protocol: Inhibition of alpha-glucosidase was performed using p-nitrophenol-α-D-glucopyranoside (pNPG) as a substrate. […] After 10 min, the reactions were started with the addition of pNPG at 0.007, 0.015, 0.03, 0.06, 0.125, 0.25, and 5 mM. The mode of inhibition and inhibition constant (Ki) were determined by Lineweaver-Burk plots.

ACC1 = test system: T2, ACC1; assay: ACC1 inhibition assay (ACC1 Assay Kit, acetyl-CoA decrease by HPLC); type: biochemical; conditions: for Effect on ACC1 activity: 0, 1, 10, 100 μM
T2 construct: purchased BPS Bioscience (USA)
Protocol: An ACC1 inhibition assay was performed using the ACC1 Assay Kit from BPS Bioscience (USA) following the manufacturer’s protocol. […] After a 10-minute pre-incubation period, the reaction was initiated by adding 0.1 ng/mL of ACC1 enzyme. The reactions were allowed to proceed for 40 minutes before being terminated by the addition of 100 μl of chilled acetonitrile. The samples were then centrifuged, and the supernatants were carefully transferred to new tubes for analysis. The rate of reaction was quantified by monitoring the decrease in acetyl-CoA substrate concentration using a C18 HPLC column, employing a mobile phase consisting of a linear gradient of water and methanol.

lipase = target: T3, lipase (Homo sapiens, UniProt P16233); assay: Inhibition of lipase with pNPP as substrate; type: biochemical
T3 sequence (P16233 17-465): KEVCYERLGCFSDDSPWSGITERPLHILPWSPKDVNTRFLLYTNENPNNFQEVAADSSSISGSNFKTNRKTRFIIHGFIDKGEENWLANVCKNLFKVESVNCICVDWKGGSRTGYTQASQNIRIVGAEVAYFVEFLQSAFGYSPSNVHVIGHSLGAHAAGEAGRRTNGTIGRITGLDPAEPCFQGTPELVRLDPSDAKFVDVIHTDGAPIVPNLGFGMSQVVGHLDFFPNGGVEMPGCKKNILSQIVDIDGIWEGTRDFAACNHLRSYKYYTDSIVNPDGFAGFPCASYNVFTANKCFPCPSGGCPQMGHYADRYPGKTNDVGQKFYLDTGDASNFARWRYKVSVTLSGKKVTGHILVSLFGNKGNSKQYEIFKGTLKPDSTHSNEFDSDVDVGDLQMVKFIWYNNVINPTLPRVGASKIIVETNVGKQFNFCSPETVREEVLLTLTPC
Protocol: Inhibition of lipase was performed using p-nitrophenyl palmitate (pNPP) as a substrate. […] The IC50 was determined by plotting the remaining activity of lipase at each inhibitor concentration and […]. […] After 10 min, the reactions were started by the addition of pNPP at 0.02, 0.03, 0.06, 0.125, 0.25, 3.5 and 5 mM. The mode of inhibition and inhibition constant (Ki) were determined by Lineweaver-Burk plots.

alpha-glucosidase [2] = target: T1, alpha-glucosidase; design: method as in doi:10.1016/j.fshw.2014.11.003; conditions: cited from earlier work
[3] = HFD-induced rats, versus control group; cited from earlier work

T1 sequence (P53341 whole entry): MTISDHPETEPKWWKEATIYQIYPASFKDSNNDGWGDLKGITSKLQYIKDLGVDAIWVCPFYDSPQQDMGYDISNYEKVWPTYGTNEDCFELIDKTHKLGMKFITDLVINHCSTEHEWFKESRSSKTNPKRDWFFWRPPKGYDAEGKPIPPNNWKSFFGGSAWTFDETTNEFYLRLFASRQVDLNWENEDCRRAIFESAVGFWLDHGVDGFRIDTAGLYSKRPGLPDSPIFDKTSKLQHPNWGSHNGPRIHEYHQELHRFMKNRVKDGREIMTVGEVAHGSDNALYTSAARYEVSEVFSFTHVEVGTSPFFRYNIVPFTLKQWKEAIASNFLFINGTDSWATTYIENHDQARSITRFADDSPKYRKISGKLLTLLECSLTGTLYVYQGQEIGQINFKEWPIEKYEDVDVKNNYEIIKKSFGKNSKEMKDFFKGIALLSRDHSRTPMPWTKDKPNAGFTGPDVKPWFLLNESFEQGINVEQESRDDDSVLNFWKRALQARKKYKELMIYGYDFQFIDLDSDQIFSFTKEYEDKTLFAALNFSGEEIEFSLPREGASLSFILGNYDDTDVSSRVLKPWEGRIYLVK

Row | SMILES | Mode of inhibition of alpha-glucosidase (alpha-glucosidase [1]) | Effect on ACC1 activity (ACC1) | Mode of inhibition of lipase (lipase; Lineweaver-Burk plots) | other results
1 | C[C@H]1O[C@H](O[C@H]2[C@H](O)[C@@H](O)[C@@H](O[C@H]3[C@H](O)[C@@H](O)C(O)O[C@@H]3CO)O[C@@H]2CO)[C@H](O)[C@@H](O)[C@@H]1N[C@H]1C=C(CO)[C@@H](O)[C@H](O)[C@H]1O (some centres unmarked) [Acarbose, acarbose, reference compound] | Non-competitive inhibition |  |  | 
2 | CCC1CN2CCc3c([nH]c4cccc(OC)c34)C2CC1/C(=C\OC)C(=O)OC (centres unmarked) [Mitragynine] | mix-typed inhibition | not and weak inhibitory effect | Competitive inhibition | IC50 (lipase): 27.4 ± 2.9 µM; Ki (lipase; Ki lipase, Lineweaver-Burk plots, pNPP): 13.7 µM and 7 µM; Alpha-glucosidase IC50 lower than acarbose (alpha-glucosidase [1]; ratio of acarbose IC50 to IC50): 7.3 fold
3 | COc1ccc2c(c1)[nH]c1c3c(c(C)cc12)O[C@](C)(CCC=C(C)C)C=C3 [O-methyl mahanine] |  |  |  | IC50 (alpha-glucosidase [2]): 46.1 µM
4 | CCCCCCCCCCC[C@@H](C[C@@H]1OC(=O)[C@H]1CCCCCC)OC(=O)[C@H](CC(C)C)NC=O [Orlistat, orlistat, reference compound] |  |  | Competitive inhibition | 
5 | O=c1c(O)c(-c2ccc(O)c(O)c2)oc2cc(O)cc(O)c12 [Quercetin] |  | decreased ACC1 activity in a dose-dependent manner | Competitive inhibition | Plasma triglyceride [3]: lower than in the control group; Decrease of ACC1 activity (ACC1; 100 μM): 60%
6 | C[C@@H]1O[C@@H](OC[C@H]2O[C@@H](Oc3c(-c4ccc(O)c(O)c4)oc4cc(O)cc(O)c4c3=O)[C@H](O)[C@@H](O)[C@@H]2O)[C@H](O)[C@H](O)[C@H]1O [Rutin, rutin] |  |  |  | IC50 (lipase; pure compounds and positive control, pNPP at Km 1.3 mM, unit given, read-out: Half-maximal inhibitory concentration (IC50) Lipase): > 100 µM

Source: article PMC10513218, “Effect of Green and Red Thai Kratom (Mitragyna speciosa) on pancreatic digestive enzymes (alpha-glucosidase and lipase) and acetyl-carboxylase 1 activity: A possible therapeutic target for obesity prevention” (PLOS ONE, 2023)
